Test results taken from patent US20120225123A1, “Use of Synergistic Combinations of an Avermectin and an Antineoplastic Compounds for the Treatment of Hematological Malignancies” (UNIVERSITY HEALTH NETWORK, priority 2009, published 2012).

Assays:
[1] = system: OCI-AML2, HL60, and KG1a leukemia cell lines; test: Chemical screen for cytotoxic compounds, MTS assay; type: cell-based, human; conditions: 72 hours, all cell lines in the screen, read-out: EC50, reduced cell viability
Protocol: HL60, KG1a, and OCI-AML2 leukemia cells were seeded into 96-well polystyrene tissue culture plates (Nunc). After seeding, cells were treated with aliquots of the chemical library (=100) at increasing concentrations (3 to 50 μM) with a final DMSO concentration of 0.5%. Seventy two hours after incubation, cell growth and viability was measured by the MTS assay. Liquid handling was performed by a Biomek FX Laboratory Automated Workstation (Beckman Coulter Fullerton, Calif.).
Cell growth and viability was assessed by the MTS assay (Promega, Madison, Wis.) according to the manufacturer's instructions and as previously described.^12 Cell death was measured by Annexin V-fluoroscein isothiocyanate (FITC) and Propidium Iodide (PI; Biovision Research Products, Mountain View, Calif.) staining and flow cytometry according to the manufacturer's instructions and as previously described.^13 To identify CD34+ cells, a normal PBSC sample was co-stained with PE-anti-CD34+ (Beckman Coulter, Marseille France), and APC-anti-CD45 (Becton Dickenson, San Jose Calif.).
A small chemical library (n=100) focused on anti-microbials and metabolic regulators with wide therapeutic windows and well understood pharmacokinetics was compiled. […] Seventy two hours after incubation, cell growth and viability was measured by the MTS assay. […]

[2] = system: U937 and TEX leukemia cells as well as primary AML cells; test: Plasma membrane potential, DiBAC4(3) staining, sensitive cells; type: cell-based, human; conditions: after ivermectin treatment
Protocol: Plasma membrane potential was measured as previously described.^18 Briefly, cells treated with IVM or buffer control in RPM1, chloride replete medium (140 mM sodium chloride, 5 mM potassium chloride, 1 mM magnesium sulfate, 1.8 mM calcium acetate, 10 mM glucose, 10 mM HEPES and 0.1% (wt/v) BSA), or chloride free media where equimolar gluconate salts of sodium and potassium replaced the sodium chloride in the chloride replete medium. After incubation, cells were stained with DiBAC4(3) (final concentration 30 nM) and fluorescence determined by flow cytometry (BD FACS Canto, Becton Dickinson, San Jose, Calif.) (excitation=488 nm, emission=516 nm) Analysis was conducted using FACSDiva Software (BD Biosciences). Calibration curves were prepared using phosphate buffers with varying potassium ion concentrations as previously described.^18
In nematodes, increases in intracellular chloride after IVM treatment cause membrane hyperpolarization. Therefore, the effects of IVM on plasma and mitochondrial membrane polarization was evaluated in leukemia cells. […] At increasing times after incubation, plasma membrane potential was measured by staining cells with DiBAC4(3) and flow cytometric analysis.

ivermectin
EC50 [1]: < 10 µM
plasma membrane potential [2]: demonstrated plasma membrane hyperpolarization
